# Like-named read-outs stand apart in the source and are kept apart here.
# Key:
# [1] = tested on: NCI-H358 (K-Ras G12C); experiment: CellTiter-Glo cell viability assay, 5-day treatment; format: cell-based; settings: Homo sapiens, NCI-H358, 120 h, 5-day treatment; read-out: H358 Cell Viability assay data (K-Ras G12C, IC50)
# Method in brief: (§1)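 Five-day compound treatment of plated cells; luminescent read after ~30 min at RT. Percent-of-DMSO data fit to a four-parameter logistic model.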
# [2] = tested on: Capan-1 (K-Ras G12V); experiment: as above; format: cell-based; settings: Homo sapiens, CAPAN-1, 120 h, 5-day treatment; read-out: Capan-1 Cell Viability assay data (K-Ras G12V, IC50)
# Method in brief: as §1
# [3] = target: KRAS G12C (Homo sapiens, UniProt P01116+P62937, G12C); experiment: Disruption of BRAF RBD interaction with Ras (FRET / MOA assay, with Cyclophilin A); format: biochemical
# KRAS G12C, sequence (P01116 1-169 isoform P01116-2 G12C): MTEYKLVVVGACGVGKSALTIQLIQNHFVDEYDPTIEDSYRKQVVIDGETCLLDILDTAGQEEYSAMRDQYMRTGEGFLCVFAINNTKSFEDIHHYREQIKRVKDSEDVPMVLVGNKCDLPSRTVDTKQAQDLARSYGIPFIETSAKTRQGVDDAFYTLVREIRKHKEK
# KRAS G12C, sequence (P62937 whole entry): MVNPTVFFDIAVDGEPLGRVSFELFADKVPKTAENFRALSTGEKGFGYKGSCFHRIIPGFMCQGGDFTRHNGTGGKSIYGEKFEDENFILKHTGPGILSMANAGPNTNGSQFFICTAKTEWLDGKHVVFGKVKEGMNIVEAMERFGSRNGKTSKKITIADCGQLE
# Method in brief: (§2)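 Here, compound titrations (ten points, factor 3, from 30 μM final) act on nucleotide-bound K-Ras and Cyclophilin A, and ternary complex formation disrupts the RAF RBD interaction.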
# [4] = target: KRAS G12V (Homo sapiens, UniProt P01116+P62937, G12V); experiment: as above; format: biochemical
# KRAS G12V, sequence (P01116 1-169 isoform P01116-2 G12V limits assumed): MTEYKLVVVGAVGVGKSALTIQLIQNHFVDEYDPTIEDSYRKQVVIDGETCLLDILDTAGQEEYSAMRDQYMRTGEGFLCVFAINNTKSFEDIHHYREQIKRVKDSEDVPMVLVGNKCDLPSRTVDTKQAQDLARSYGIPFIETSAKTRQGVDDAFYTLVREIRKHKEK
# KRAS G12V, sequence (P62937 whole entry): as the sequence (P62937 whole entry) above
# Method in brief: as §2
# [5] = target: KRAS G12S (Homo sapiens, UniProt P01116+P62937, G12S); experiment: as above; format: biochemical
# KRAS G12S, sequence (P01116 1-169 isoform P01116-2 G12S limits assumed): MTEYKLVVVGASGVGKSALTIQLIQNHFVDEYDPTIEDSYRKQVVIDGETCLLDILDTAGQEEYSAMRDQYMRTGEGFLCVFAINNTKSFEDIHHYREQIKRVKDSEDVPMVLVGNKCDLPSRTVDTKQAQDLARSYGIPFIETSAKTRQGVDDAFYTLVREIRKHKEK
# KRAS G12S, sequence (P62937 whole entry): as the sequence (P62937 whole entry) above
# Method in brief: as §2
# [6] = target: KRAS G12D (Homo sapiens, UniProt P01116+P62937, G12D); experiment: as above; format: biochemical
# KRAS G12D, sequence (P01116 1-169 isoform P01116-2 G12D limits assumed): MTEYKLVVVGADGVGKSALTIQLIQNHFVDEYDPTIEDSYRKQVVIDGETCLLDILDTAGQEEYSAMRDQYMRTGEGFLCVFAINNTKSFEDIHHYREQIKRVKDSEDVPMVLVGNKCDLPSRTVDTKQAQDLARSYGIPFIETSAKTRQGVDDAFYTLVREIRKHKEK
# KRAS G12D, sequence (P62937 whole entry): as the sequence (P62937 whole entry) above
# Method in brief: as §2
# [7] = target: KRAS G13D (Homo sapiens, UniProt P01116+P62937, G13D); experiment: as above; format: biochemical
# KRAS G13D, sequence (P01116 1-169 isoform P01116-2 G13D limits assumed): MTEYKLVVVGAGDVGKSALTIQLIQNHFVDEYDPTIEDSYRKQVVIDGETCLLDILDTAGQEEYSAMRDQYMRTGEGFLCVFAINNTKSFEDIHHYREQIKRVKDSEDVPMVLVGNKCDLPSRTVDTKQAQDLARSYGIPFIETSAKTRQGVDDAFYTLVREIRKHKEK
# KRAS G13D, sequence (P62937 whole entry): as the sequence (P62937 whole entry) above
# Method in brief: as §2
# [8] = target: KRAS WT (Homo sapiens, UniProt P01116+P62937); experiment: as above; format: biochemical
# KRAS WT, sequence (P01116 1-169 isoform P01116-2 limits assumed): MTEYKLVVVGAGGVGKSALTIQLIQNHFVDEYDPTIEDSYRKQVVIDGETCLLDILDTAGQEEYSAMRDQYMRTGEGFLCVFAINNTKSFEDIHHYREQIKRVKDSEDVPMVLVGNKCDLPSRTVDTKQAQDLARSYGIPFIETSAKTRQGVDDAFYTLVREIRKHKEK
# KRAS WT, sequence (P62937 whole entry): as the sequence (P62937 whole entry) above
# Method in brief: as §2
# [9] = target: KRAS G13C (Homo sapiens, UniProt P01116+P62937, G13C); experiment: as above; format: biochemical
# KRAS G13C, sequence (P01116 1-169 isoform P01116-2 G13C): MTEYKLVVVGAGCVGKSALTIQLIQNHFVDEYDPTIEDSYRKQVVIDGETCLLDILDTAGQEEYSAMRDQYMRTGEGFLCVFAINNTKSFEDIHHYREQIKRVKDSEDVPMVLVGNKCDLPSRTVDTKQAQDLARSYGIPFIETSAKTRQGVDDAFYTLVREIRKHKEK
# KRAS G13C, sequence (P62937 whole entry): as the sequence (P62937 whole entry) above
# Method in brief: as §2
# [10] = target: NRAS G12C (Homo sapiens, UniProt P01111+P62937, G12C); experiment: as above; format: biochemical
# NRAS G12C, sequence (P01111 whole entry G12C): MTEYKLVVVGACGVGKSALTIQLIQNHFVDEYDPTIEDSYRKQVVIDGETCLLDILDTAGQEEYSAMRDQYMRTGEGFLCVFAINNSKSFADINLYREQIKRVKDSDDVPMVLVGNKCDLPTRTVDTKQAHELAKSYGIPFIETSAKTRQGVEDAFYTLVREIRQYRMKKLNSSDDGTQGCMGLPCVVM
# NRAS G12C, sequence (P62937 whole entry): as the sequence (P62937 whole entry) above
# [11] = target: NRAS Q61K (Homo sapiens, UniProt P01111+P62937, Q61K); experiment: as above; format: biochemical; settings: NRAS Q61K; read-out: NRAS Q61K FRET data IC50
# NRAS Q61K, sequence (P01111 whole entry Q61K): as the sequence (P01111 whole entry G12C) above, with C12G, Q61K counted along it
# NRAS Q61K, sequence (P62937 whole entry): as the sequence (P62937 whole entry) above
# Method in brief: (§3)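 TR-FRET in 25 mM HEPES pH 7.3, 100 mM NaCl, 5 mM MgCl2, 0.1% BSA: 25 μM Cyclophilin A, 12.5 nM His6-Ras-GMPPNP, 50 nM GST-BRAF RBD with compound (10-point 3-fold series from 30 μM), 3 h at 25° C. Anti-His Eu/anti-GST APC added, 1.5 h more; IC50 from decreased FRET ratio versus DMSO.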
# [12] = target: NRAS WT (Homo sapiens, UniProt P01111+P62937); experiment: as above; format: biochemical; settings: NRAS WT; read-out: NRAS WT FRET data IC50
# NRAS WT, sequence (P01111 whole entry): as the sequence (P01111 whole entry G12C) above, with C12G counted along it
# NRAS WT, sequence (P62937 whole entry): as the sequence (P62937 whole entry) above
# Method in brief: as §3
# [13] = target: NRAS Q61R (Homo sapiens, UniProt P01111+P62937, Q61R); experiment: as above; format: biochemical; settings: NRAS Q61R; read-out: NRAS Q61R FRET data IC50
# NRAS Q61R, sequence (P01111 whole entry Q61R): as the sequence (P01111 whole entry G12C) above, with C12G, Q61R counted along it
# NRAS Q61R, sequence (P62937 whole entry): as the sequence (P62937 whole entry) above
# Method in brief: as §3
# [14] = target: KRAS Q61H (Homo sapiens, UniProt P01116+P62937, Q61H); experiment: as above; format: biochemical; settings: KRAS Q61H; read-out: KRAS Q61H FRET data IC50
# KRAS Q61H, sequence (P01116 1-169 isoform P01116-2 Q61H limits assumed): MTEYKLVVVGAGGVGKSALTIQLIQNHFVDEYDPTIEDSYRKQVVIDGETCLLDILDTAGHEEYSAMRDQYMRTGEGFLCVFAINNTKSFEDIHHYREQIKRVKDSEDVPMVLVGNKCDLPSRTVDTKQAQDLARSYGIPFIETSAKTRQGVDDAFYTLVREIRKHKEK
# KRAS Q61H, sequence (P62937 whole entry): as the sequence (P62937 whole entry) above
# Method in brief: as §3
# [15] = read-out: KRAS G12C FRET data, IC50
# [16] = KRAS G12V, read-out: KRAS G12V FRET data IC50
# [17] = read-out: KRAS G12S FRET data, IC50
# [18] = read-out: KRAS G12D FRET data, IC50
# [19] = KRAS G13D, read-out: KRAS G13D FRET data IC50
# [20] = KRAS WT, read-out: KRAS WT FRET data IC50
# [21] = read-out: KRAS G13C FRET data, IC50
# [22] = NRAS G12C, read-out: NRAS G12C FRET data IC50
# [23] = KRAS G12V FRET data IC50, KRAS G12V
# [24] = KRAS G13D FRET data IC50, KRAS G13D
# [25] = KRAS WT FRET data IC50, KRAS WT
# [26] = NRAS G12C FRET data IC50, NRAS G12C
smiles,measurement,setting,value
"CCn1c(-c2cccnc2[C@H](C)OC)c2c3cc(ccc31)-c1csc(n1)C[C@H](NC(=O)[C@H](C(C)C)N(C)C(=O)N1CCN(C(=O)CN(C)C)CC1)C(=O)N1CCC[C@H](N1)C(=O)OCC(C)(C)C2 (atropisomer, axis not shown) [Example A290]",IC50,[1],0.01 to 0.1 µM
same,IC50,[2],0.01 to 0.1 µM
same,IC50,[3]; [15],0.01 to 0.1 µM
same,IC50,[4]; [16],0.1 to 1 µM
same,IC50,[5]; [17],0.1 to 1 µM
same,IC50,[6]; [18],0.1 to 1 µM
same,IC50,[7]; [19],0.1 to 1 µM
same,IC50,[8]; [20],0.01 to 0.1 µM
same,IC50,[9]; [21],0.1 to 1 µM
same,IC50,[10]; [22],0.01 to 0.1 µM
same,IC50,[11],0.01 to 0.1 µM
same,IC50,[12],0.01 to 0.1 µM
same,IC50,[13],0.1 to 1 µM
same,IC50,[14],0.01 to 0.1 µM
"CCn1c(-c2cccnc2[C@H](C)OC)c2c3cc(ccc31)-c1csc(n1)C[C@H](NC(=O)[C@H](C(C)C)N(C)C(=O)N1C[C@@H]3CN(C)C[C@@H]31)C(=O)N1CCC[C@H](N1)C(=O)OCC(C)(C)C2 (atropisomer, axis not shown) [Example A446]",IC50,[2],> 10 µM
same,IC50,[3]; [15],1 to 10 µM
same,IC50,[4]; [16],> 10 µM
same,IC50,[5]; [17],1 to 10 µM
same,IC50,[6]; [18],> 10 µM
same,IC50,[7]; [19],1 to 10 µM
same,IC50,[8]; [20],1 to 10 µM
same,IC50,[9]; [21],1 to 10 µM
same,IC50,[10]; [22],1 to 10 µM
same,IC50,[11],1 to 10 µM
same,IC50,[12],1 to 10 µM
same,IC50,[13],> 10 µM
same,IC50,[14],1 to 10 µM
"CCn1c(-c2cnccc2COC)c2c3cc(ccc31)-c1cc(O)cc(c1)C[C@H](NC(=O)[C@H](C(C)C)N(C)S(C)(=O)=O)C(=O)N1CCC[C@H](N1)C(=O)OCC(C)(C)C2 [Example A57, (2S)—N-[(8S,14S)-22-ethyl-4-hydroxy-21-[4-(methoxymethyl)pyridin-3-yl]-18,18-dimethyl-9,15-dioxo-16-oxa-10,22,28-triazapentacyclo[18.5.2.1^2,6.1^10,14.0^23,27]nonacosa-1(26),2,4,6(29),20,23(27),24-heptaen-8-yl]-3-methyl-2-(N-methylmethanesulfonamido)butanamide]",IC50,[1],1 to 10 µM
same,IC50,"[3]; KRAS G12C FRET data, IC50",1 to 10 µM
same,IC50,[4]; [23],1 to 10 µM
same,IC50,"[5]; KRAS G12S FRET data, IC50",1 to 10 µM
same,IC50,"[6]; KRAS G12D FRET data, IC50",> 10 µM
same,IC50,[7]; [24],1 to 10 µM
same,IC50,[8]; [25],1 to 10 µM
same,IC50,"[9]; KRAS G13C FRET data, IC50",1 to 10 µM
same,IC50,[10]; [26],1 to 10 µM
same,IC50,[11],1 to 10 µM
same,IC50,[12],1 to 10 µM
same,IC50,[13],1 to 10 µM
same,IC50,[14],0.1 to 1 µM
CCn1c(-c2cccnc2[C@H](C)OC)c2c3cc(ccc31)-c1csc(n1)C[C@H](NC(=O)[C@H](C(C)C)N(C)C(=O)N1CC[C@]13CCCNC3)C(=O)N1CCC[C@H](N1)C(=O)OCC(C)(C)C2 [Example A434],IC50,[2],1 to 10 µM
same,IC50,[3]; [15],0.1 to 1 µM
same,IC50,[4]; [16],1 to 10 µM
same,IC50,[5]; [17],0.1 to 1 µM
same,IC50,[6]; [18],0.1 to 1 µM
same,IC50,[7]; [19],0.1 to 1 µM
same,IC50,[8]; [20],0.1 to 1 µM
same,IC50,[9]; [21],0.1 to 1 µM
same,IC50,[10]; [22],0.1 to 1 µM
same,IC50,[11],0.1 to 1 µM
same,IC50,[12],0.01 to 0.1 µM
same,IC50,[13],0.1 to 1 µM
same,IC50,[14],0.01 to 0.1 µM
"CCn1c(-c2cnccc2COC)c2c3cc(ccc31)-c1cc(O)cc(c1)C[C@H](NC(=O)[C@H](C(C)C)N(C)C(=O)[C@H]1CCN(S(=O)(=O)N3CC(O)C3)C1)C(=O)N1CCC[C@H](N1)C(=O)OCC(C)(C)C2 [Example A37, (2S)—N-[(8S,14S)-22-ethyl-4-hydroxy-21-[4-(methoxymethyl)pyridin-3-yl]-18,18-dimethyl-9,15-dioxo-16-oxa-10,22,28-triazapentacyclo[18.5.2.1^2,6.1^10,14.0^23,27]nonacosa-1(26),2,4,6(29),20,23(27),24-heptaen-8-yl]-2-{1-[(3S)-1-[(3-hydroxyazetidin-1-yl)sulfonyl]pyrrolidin-3-yl]-N-methylformamido}-3-methylbutanamide]",IC50,[1],1 to 10 µM
same,IC50,"[3]; KRAS G12C FRET data, IC50",0.1 to 1 µM
same,IC50,[4]; [23],0.1 to 1 µM
same,IC50,"[5]; KRAS G12S FRET data, IC50",0.1 to 1 µM
same,IC50,"[6]; KRAS G12D FRET data, IC50",> 10 µM
same,IC50,[7]; [24],1 to 10 µM
same,IC50,[8]; [25],0.1 to 1 µM
same,IC50,"[9]; KRAS G13C FRET data, IC50",0.1 to 1 µM
same,IC50,[10]; [26],0.1 to 1 µM
same,IC50,[11],1 to 10 µM
same,IC50,[12],0.1 to 1 µM
same,IC50,[13],1 to 10 µM
same,IC50,[14],0.01 to 0.1 µM
